Measured values taken from paper PMC10539794, “Structural polymorphism and substrate promiscuity of a ribosome-associated molecular chaperone” (Magnetic resonance, 2021).
Where no end group is shown, it is not given here.

Tests used:
[1] = molecular target: T1, E. coli TF (trigger factor), full-length (Escherichia coli, UniProt P0A850); assay: Fluorescence polarization analysis of TF binding to FITC-labeled peptides; conditions: N-terminally FITC-labeled peptide 1 µM, full-length TF 0.1-1000 µM, 20 mM Tris pH 7.4, 100 mM NaCl, ex 485 nm / em 535 nm, one-site binding model, errors from three technical replicates
T1 construct: His6 (N); made in house
T1 sequence (P0A850 1-432): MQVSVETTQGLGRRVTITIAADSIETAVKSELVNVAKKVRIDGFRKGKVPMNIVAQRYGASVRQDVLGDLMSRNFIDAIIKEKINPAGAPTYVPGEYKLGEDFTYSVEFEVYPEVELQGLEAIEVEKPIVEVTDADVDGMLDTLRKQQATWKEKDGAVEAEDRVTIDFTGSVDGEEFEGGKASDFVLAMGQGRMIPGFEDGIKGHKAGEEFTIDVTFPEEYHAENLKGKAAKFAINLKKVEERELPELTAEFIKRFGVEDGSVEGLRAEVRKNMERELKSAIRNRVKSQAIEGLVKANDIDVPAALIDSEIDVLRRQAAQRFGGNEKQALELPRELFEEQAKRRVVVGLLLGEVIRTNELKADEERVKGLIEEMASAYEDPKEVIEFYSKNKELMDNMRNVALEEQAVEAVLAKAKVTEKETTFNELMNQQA
Experimental: A fraction of all these peptides were subsequently labeled with FITC at the N-terminus for fluorescence polarization (FP) measurements. […] For FP analysis, FITC-labeled peptides were dissolved in DMSO to yield a stock solution of 4 M. They were subsequently diluted by 20 mM Tris (pH 7.4) and 100 mM NaCl to yield a molar concentration of 100 µM . 200 µL of TF variants was transferred into a 96-well plate followed by serial dilution by the same buffer in a 1:1 dilution ratio. The final protein concentrations were between 0.1 and 1000 µM . After serial dilution, 50 µL of protein solutions of various protein concentrations was transferred to new wells by an eight-channel pipette and was mixed with FITC-labeled peptide solution to yield a peptide concentration of 1 µM . FP measurements of these samples were carried out using a plate reader (Paradigm, Molecular Device, USA) with an excitation wavelength of 485 nm and an emission wavelength of 535 nm. The integration time was set to 250 ms.

[2] = molecular target: FITC-labeled IcdH3 peptide (ICDH 177-194); assay: fluorescence polarisation; FITC-labeled peptide at 1 µM, TF serially diluted (0.1-1000 µM); 20 mM Tris pH 7.4, 100 mM NaCl; one-site binding model; apparent constants
[3] = molecular target: FITC-labeled IcdH2 peptide (ICDH 125-137); assay: as above
[4] = molecular target: FITC-labeled IcdH1 peptide (ICDH 55-70); assay: as above

Row | Substance | Kd [1] [µM] | Kd [2] [µM] | Kd [3] [µM] | Kd [4] [µM]
1 | YICLRPVRYYQGT [IcdH2] | 8.6 ± 0.3 | – | – | –
2 | KAYKGERKISWMEIYT [IcdH1] | 28.2 ± 1 | – | – | –
3 | KFLREEMGVKKIRFPEHC [IcdH3] | 132 ± 9 | – | – | –
4 | E. coli trigger factor (TF), full length (from UniProt P0A850 1-432) (natural protein) | – | 132 | 8.6 | 28.2
